Patent US20200128823A1, “ALGICIDAL, ALGISTATIC, HERBICIDAL AND HERBISTATIC TREATMENT OF WATER” (priority 2017, published 2020)
In brackets after ≈: the same amount, converted by molar mass. Where two headings read alike, the source gives them in different places.

Columns and labels:
[1] = cited from earlier work
[2] = Previous experiments: dissolution in water of a composition of gallic acid alone; format: physicochemical; settings: composition composed only of gallic acid, no excipient
Text: In order to avoid this problem, excipients of different nature but without algicidal, algistatic, herbicidal or herbistatic effect are preferably added. The excipients are desirable to allow a rapid descent on the bottom of the various conditioning, the dissolution of the active substance or optionally of the active substances and secondly to create a stratum of a density greater than that of the water by a thickening action.

Question: For `O=c1oc2c(O)c(O)cc3c(=O)oc4c(O)c(O)cc1c4c23` [Ellagic Acid, 2,3,7,8-Tetrahydroxy(1)benzopyrano (5,4,3-cde)-(1)benzopyran-5,10-dione], which Solubility ([1]; at 21° C.) is on record?
Answer: Its Solubility is under 1 mg/mL.

Question: With `O=C(O)c1cc(O)c(O)c(O)c1` [Non-Hydrated Gallic Acid, 3,4,5-trihydroxybenzoic acid] as the compound, how does the Dissolution in water [2] read?
Answer: Its Dissolution in water is “does not dissolve or is very difficult to dissolve in water”.

Question: What does the source list for `Oc1ccc(/C=C/c2cc(O)cc(O)c2)cc1` [Resveratrol, 5-[(E)-2-(4-hydroxyphenyl)-ethenyl] benzene-1,3-diol]?
Answer: Solubility ([1]; DMSO): ~16 mg/mL (≈ 70.1 mM); Solubility ([1]; ethanol): 50 mg/mL (≈ 219 mM); Solubility ([1]; water): ~0.03 mg/mL (≈ 0.131 mM)

Question: Which Solubility ([1]; water at 20° C.) does the source give for `O.O=C(O)c1cc(O)c(O)c(O)c1` [Gallic Acid Monohydrate] here?
Answer: Its Solubility is 15 mg/mL.

Question: Which “Solubility in water (in words)” value ([1]; water) does the source give for `O=C(O)/C=C/c1ccc(O)c(O)c1` [Caffeic Acid, (E) 3-(3,4-dihydroxyphenyl)prop-2-enoic acid] here?
Answer: The value was “poorly soluble in water”.

Question: For `O=c1c(O)c(-c2ccc(O)c(O)c2)oc2cc(O)cc(O)c12` [Quercetin, 2-(3,4-dihydroxyphenyl)-3,5,7-trihydroxy-4H-chromen-4-one], which Solubility ([1]; water) is on record?
Answer: Its Solubility is 0.06 mg/mL (≈ 0.199 mM).

Question: Which Solubility in water ([1]; at 20° C.) does the source give for `Oc1cccc(O)c1O` [Pyrogallic Acid, pyrogallol] here?
Answer: The Solubility in water was 588.00 mg/mL (≈ 4660 mM).
